Residues, ends and D or L forms follow the SMILES beside them. No end group written: not given here. *: point of attachment. X1 = O=C(CCOCCOCCOCOCCOCCOCCOCCC(=O)*)ON1C(=O)CC(S(=O)(=O)O)C1=O; X3 = O=C(CCOCCOCCOCCOCCOCCOCCC(=O)*)ON1C(=O)CC(S(=O)(=O)O)C1=O; X2 = O=C(CCOCCOCCOCCC(=O)*)ON1C(=O)CC(S(=O)(=O)O)C1=O

The values below come from patent publication US20200386748A1, “COMPOSITIONS AND METHODS FOR ANALYTE DETECTION USING BIOLUMINESCENCE” (Promega Corporation, priority 2019, published 2020).

One data set deals with rhIL-6. Put plainly: Solution-based IL-6 immunoassay with antibodies directly labeled with reactive peptides. Also noted: species or system human. Particulars: for IL-6 assay result with LgTrip 5146: 1 μM LgTrip 5146 instead of LgTrip 3546; for signal to background: IL-6 titration; for signal to background / signal in the absence of rhIL-6: paired with HW-1053, 1 μM LgTrip 3546; for light output in the presence of high rhIL-6 concentrations: SmTrip9 label on 5IL6 antibody paired with HW-1053-labeled 505E antibody, 1 μM LgTrip 3546. As for the experimental part:
The basic principle of homogeneous NanoLuc tripartite immunoassays with directly-labeled antibodies is depicted in FIG. 78.
SmTrip9 variants such as Pep693 (SEQ ID NO: 20), Pep895 (SEQ ID NO: 24), and Pep929 (SEQ ID NO: 25) or SmTrip10 variants such as Pep691 (SEQ ID NO: 18) and Pep692 (SEQ ID NO: 19) were individually dissolved in DMF to 5 mM. […] Subsequently, these antibodies were combined with 20× molar excess of a reactive peptide for 1 hr at 4° C. while shaking in order to covalently label the proteins. […] SmTrip9 reactive peptides were used to label antibody 5IL6 while SmTrip10 reactive peptides were used to label antibody 505E. The denaturing SDS-PAGE gel shown in FIG. 79 was used to characterize the conjugated antibodies.
FIGS. 80-82 display raw RLU dose response curves for antibody conjugates in the presence of a rhIL-6 titration series. […] After addition of N205, luminescence signal was measured. […] Data in FIG. 81 were generated using 62.5 ng/ml of SmTrip9-labeled (HW-0984) 5IL6 antibody and 60 ng/ml of SmTrip10-labeled (HW-1053) 505E antibody. Data in FIG. 82 were generated using the following concentrations of antibody conjugates: 15 ng/ml HW-1043 (SEQ ID NO: 24)+30 ng/ml HW-1053 (SEQ ID NO: 18), 15 ng/ml HW-1052 (SEQ ID NO: 25)+15 ng/ml HW-1053, (SEQ ID NO: 18) 15 ng/ml HW-1055 (SEQ ID NO: 25)+15 ng/ml HW-1053 (SEQ ID NO: 18), 60 ng/ml HW-1042 (SEQ ID NO: 20)+8 ng/ml HW-1053 (SEQ ID NO: 18), and 60 ng/ml HW-1050 (SEQ ID NO: 27)+8 ng/ml HW-1053 (SEQ ID NO: 18).

Another data set deals with T1, purified NANOLUC enzyme (Oplophorus gracilirostris, UniProt Q9GV45, A31E/A60N/A81I/F95D/I117V/K70R/L54V/L99Q/M102K/N193R/P142E/Q151K/Q38R/Q45L/V71I/Y165I).
T1 construct: purchased Promega
In kind it is biochemical. Particulars: stored in organic solvent at elevated temperature (60° C.).

The next data set deals with LgTrip 3546. The data set is described as follows: titration of the single labeled antibody with 1 µM LgTrip 3546 and N205, no IL-6 (FIG. 83).
Data set [1] in a line: Protein buffer formulations for proteins dried on Whatman 903 paper. Particulars: buffers 2 and 5.
Description: For these experiments, Whatman 903 protein saver spot cards were used with the following protein buffer formulations: • Protein buffer 1: 20 mM Na3PO4, 5% w/v BSA, 0.25% v/v tween 20, 10% w/v sucrose • Protein buffer 2: 20 mM Na3PO4, 0.25% v/v tween 20, 10% w/v sucrose • Protein buffer 3: 20 mM Na3PO4, 5% w/v BSA, 0.25% v/v tween 20 • Protein buffer 4: 20 mM Na3PO4, 5% w/v BSA, 0.25% v/v tween 20, 2.5% pullulan • Protein buffer 5: 20 mM Na3PO4, 0.25% v/v tween 20, 2.5% pullulan.
For NanoLuc, a 1000× stock solution was diluted 1:1000 in protein buffer (1 mL). For a 1.068 nM stock solution, 3 μl was diluted into 297 μl of protein buffer. About 5 μL of each concentration was spotted on the filter paper. For LgBiT-1672-11s-His, 5 μL of 1.068 nM protein per spot was used. About 104, was diluted in 990 μL protein buffer for a 2e^−7M stock. About 100 μL of a 100 nM protein solution was then prepared, and about 10 μL stock was diluted into 990 μL protein buffer for 1 nM stock. About 5 μL of each concentration was spotted onto filter paper. For LgTrip 3546, about 5 μL of 1.068 nM protein was used per spot. About 1.1 of LgBiT-1672 stock was diluted into 998.94 μL protein buffer. About 3 μL stock was diluted into 297 μL protein buffer. About 54, of each concentration was spotted onto filter paper. After all protein was added, the samples were dried at 30° C. for about 1 hour. […]

LgTrip 3546, sequence (chain, as listed by the source): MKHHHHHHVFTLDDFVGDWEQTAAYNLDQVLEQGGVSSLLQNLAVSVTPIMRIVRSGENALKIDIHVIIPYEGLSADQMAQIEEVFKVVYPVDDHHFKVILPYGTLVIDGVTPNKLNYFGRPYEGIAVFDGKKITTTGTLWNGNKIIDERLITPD

As for “SulfoSE-PEG3-SmTrip9 Pep938-SA (GRMLFRVTINSWRC; also: SulfoSE-PEG3 label, position not given here) [HW-1050]”, in the data set with rhIL-6, the “IL-6 assay result with LgTrip 5146” value was “results similar to LgTrip 3546”, the signal to background result is given as “best signal to background”, the “light output in the presence of high rhIL-6 concentrations” value was ~10^6 RLUs and the “signal in the absence of rhIL-6” value was “low light output in the absence of the analyte”.

On to `CC[C@H](C)[C@H](NC(=O)[C@@H](NC(=O)[C@@H](NC(=O)[C@H](CCCNC(=N)N)NC(=O)[C@H](Cc1ccccc1)NC(=O)[C@H](CC(C)C)NC(=O)[C@H](CCSC)NC(=O)[C@H](CCCNC(=N)N)NC(=O)[C@H](CCCNC(=N)N)NC(=O)CCOCCOCCOCCC(=O)ON1C(=O)CC(S(=O)(=O)O)C1=O)C(C)C)[C@@H](C)O)C(=O)N[C@@H](CCC(N)=O)C(=O)N[C@@H](CCCNC(=N)N)C(=O)N[C@@H](Cc1c[nH]c2ccccc12)C(=O)N[C@@H](CCCNC(=N)N)C(=O)O` (some centres unmarked) [HW-1055, SulfoSE-PEG3-SmTrip9 Pep929] (X2-RRMLFRVTIQRWR-OH), for which the “signal in the absence of rhIL-6” value with rhIL-6 is given as “high signal even in the absence of rhIL-6”.

Regarding `CC[C@H](C)[C@H](NC(=O)[C@@H](NC(=O)[C@@H](NC(=O)[C@@H](NC(=O)[C@H](Cc1ccccc1)NC(=O)[C@H](CC(C)C)NC(=O)[C@H](CC(C)C)NC(=O)[C@H](CCCNC(=N)N)NC(=O)CNC(=O)CCOCCOCCOCCOCOCCOCCOCCC(=O)ON1C(=O)CC(S(=O)(=O)O)C1=O)[C@@H](C)O)C(C)C)[C@@H](C)O)C(=O)N[C@@H](CCC(=O)O)C(=O)N[C@@H](CCCNC(=N)N)C(=O)N[C@@H](Cc1ccc(O)cc1)C(=O)N[C@@H](CCCNC(=N)N)C(N)=O` (some centres unmarked) [HW-1043, SulfoSE-PEG6-SmTrip9 Pep895] (X1-GRLLFTVTIERYR-NH2), in the data set with rhIL-6, the “IL-6 assay result with LgTrip 5146” value is “results similar to LgTrip 3546”, the signal to background entry was “best signal to background”, the “light output in the presence of high rhIL-6 concentrations” value is on record as ~10^6 RLUs and the “signal in the absence of rhIL-6” value was “low light output in the absence of the analyte”.

For `O=c1c(Cc2ccco2)nc2c(Cc3ccccc3)[nH]c(-c3ccccc3)cn1-2` [furimazine, 8-benzyl-2-(furan-2-ylmethyl)-6-phenylimidazo[1,2-a]pyrazin-3(7H)-one], at purified NANOLUC enzyme, the “time to loss of all activity” value is given as “about 10 days”.

With `CC[C@H](C)[C@H](NC(=O)[C@@H](NC(=O)[C@@H](NC(=O)[C@H](CCCNC(=N)N)NC(=O)[C@H](Cc1ccccc1)NC(=O)[C@H](CC(C)C)NC(=O)[C@H](CCSC)NC(=O)[C@H](CCCNC(=N)N)NC(=O)[C@H](CCCNC(=N)N)NC(=O)CCOCCOCCOCCOCCOCCOCCC(=O)ON1C(=O)CC(S(=O)(=O)O)C1=O)C(C)C)[C@@H](C)O)C(=O)N[C@@H](CCC(N)=O)C(=O)N[C@@H](CCCNC(=N)N)C(=O)N[C@@H](Cc1c[nH]c2ccccc12)C(=O)N[C@@H](CCCNC(=N)N)C(=O)O` (some centres unmarked) [HW-1052, SulfoSE-PEG6-SmTrip9 Pep929] (X3-RRMLFRVTIQRWR-OH), in the data set on rhIL-6, the “signal in the absence of rhIL-6” value is listed as “high signal even in the absence of rhIL-6”.

Consider RRMLFRVTIQRWR (antibody, not shown: large carriers; small tags and cut ends, not fully specified) [anti-IL-6 antibody 5IL6 directly labeled with HW-1052 (SulfoSE-PEG6-SmTrip9 Pep929)], for which the RLU with LgTrip 3546 amounted to 100 RLU.

With GRMLFRVTINSWR (antibody, not shown: large carriers; small tags and cut ends, not fully specified) [anti-IL-6 antibody 5IL6 directly labeled with HW-1042 (SulfoSE-PEG6-SmTrip9 Pep693)], in the data set with LgTrip 3546, the RLU came out at 100 RLU.

For GRLLFVVVIERYR (antibody, not shown: large carriers; small tags and cut ends, not fully specified) [anti-IL-6 antibody 5IL6 directly labeled with HW-1010 (SulfoSE-PEG3-SmTrip9 Pep895)], the RLU with LgTrip 3546 was found to be 100 RLU.

Molecule GRMLFRVTINSWR (antibody, not shown: large carriers; small tags and cut ends, not fully specified) [anti-IL-6 antibody 5IL6 directly labeled with HW-0984 (SulfoSE-PEG3-SmTrip9 Pep693)] showed an RLU with LgTrip 3546 greater than 1000 RLU.

B1: NanoLuc: bioluminescent polypeptide of SEQ ID NO: 5, NanoLuc luciferase (Promega) (protein)
chain: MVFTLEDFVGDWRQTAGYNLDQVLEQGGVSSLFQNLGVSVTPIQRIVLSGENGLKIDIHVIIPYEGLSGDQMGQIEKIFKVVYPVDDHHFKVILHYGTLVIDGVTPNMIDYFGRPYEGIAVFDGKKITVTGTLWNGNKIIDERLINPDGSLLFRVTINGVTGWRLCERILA
As for B1, the “change of RLU in protein buffers without BSA” value in data set [1] is given as “largest decreases in RLU”.

In the data set with LgTrip 3546, VSGWRLFRRIS (antibody, not shown: large carriers; small tags and cut ends, also: peptide labeled on anti-IL-6 antibody 505E via SulfoSE-PEG3 linker) [anti-IL-6 antibody 505E directly labeled with HW-0977 (SulfoSE-PEG3-SmTrip10 Pep691)] returned an RLU of 100 RLU.
